In patent US20110287470A1, “CELL CULTURE METHOD TO FORM AGGREGATES” (priority 2008, published 2011):

System: cardiac tissue generated from cardiomyocytes derived from human ESCs
Experiment: Multi-electrode array electrophysiological recordings of CardioSpot cardiac tissue
Type: cell-based
Details: for repolarising potential (delay measured from the first signal): control 140 ms, FIG. 8
Procedure: CardioSpot made using primary or stem cell derived cardiomyocytes are placed onto the porous MEAs. Electrophysiological recordings were performed either through the supporting membrane or from under the membrane in order to get a direct contact of the tissues with recording electrodes. Control recording were performed using the culture medium as well a the solution used for reference molecules ([…], and lidocaine) Pharmacological experiments were carried out using reference compounds to characterise and validate the cardiac tissue generated from cardiomyocytes derived from human ESCs and engineered using the method of invention.

SMILES | repolarising potential (delay measured from the first signal) (30 nM E4031, after 5 min) [ms] | repolarising potential (delay measured from the first signal) (30 nM E4031, after 15 min) [ms] | decrease of the amplitude of the electrophysiological signals (30 uM lidocaine, after 6 minutes, FIG. 7) [%] | amplitude of the first signal (predominantly dependent on sodium channel opening) (lidocaine, within few minutes, FIG. 7)
Cc1cccc(CCN2CCC(C(=O)c3ccc(NS(C)(=O)=O)cc3)CC2)n1 [E4031] | 155 | 173 | – | –
CCN(CC)CC(=O)Nc1c(C)cccc1C [lidocaine] | – | – | 50 | dramatic decrease of the amplitude
